From patent publication US10190120B2, “Zn-DPA complex compounds and siRNA delivery systems containing the same” (KOREA INSTITUTE OF SCIENCE AND TECHNOLOGY, priority 2016, dated 2019)

Experiments:
HCT116 cell line = assay: siRNA delivery efficiency with biotin pre-treatment (competition); assay type: cell-based; conditions: biotin 0.5 mM and 5 mM 30 minutes before, molar ratio 1:400, FIG. 6
Description: (§1) According to Experimental Example 1 (1), composites having a molar ratio of siRNA (luciferase siRNA, siLuc) and the Zn-DPA complex compound of 1:50, 1:100, 1:200, 1:400, 1:600, 1:800, and 1:1,000 were prepared, and the concentration of siLuc per sample was adjusted constantly at 20 nM. The composite was treated with ssPEI/CMV-LUC (1 μg) in HeLa, HepG2, and HCT116 cell lines, and was washed with a Dulbecco's phosphate buffered saline solution (DPBS) after 6 hours, and then the composite was treated in a serum-free medium. After 4 hours, the medium was exchanged with a 10% serum medium, and then the samples were cultivated at 37° C. for 24 hours. The cells were washed with the DPBS and were dissolved in a lysis buffer (200 μL), and then the degree of expression of the luciferase was determined by using a microplate fluorescence analyzer (VICTOR 3 V Multilabel Counter, PerkinElmer, Wellesley, Mass.). The results are illustrated in FIG. 5.
(§2) In order to evaluate the delivery efficiency of siRNA (luciferase siRNA, siLuc) for the Zn-DPA complex compound synthesized in Example 1-3, a cell experiment was performed in the same manner as in Experimental Example 4 by classifying the experimental groups into groups treated with biotin at a concentration of 0.5 mM and 5 mM 30 minutes before treating the groups with a composite of siRNA and the Zn-DPA complex compound, or a non-treatment group. […]

HepG2 cell line = assay: as above; assay type: cell-based; conditions: biotin 0.5 mM and 5 mM 30 minutes before, molar ratio 1:400, FIG. 6
Description: as §1, §2

`O=C(CCCCC1SC[C@H]2NC(=O)N[C@@H]12)NCCCCOc1cccc(CN(Cc2ccccn2)Cc2ccccn2)c1` (some centres unmarked) [Example 1-3] was tested, and the “effect of biotin on cell delivery efficiency / amount of luciferase expressed” value (HCT116 cell line) was “slight” and the “effect of biotin on cell delivery efficiency / amount of luciferase expressed” value (HepG2 cell line) was “significantly varied depending on the presence or absence of biotin”.
